Laboratory results: patent publication US10881614B2, “Nicotinamide compositions and the therapeutic use thereof” (APeT Holding B.V., priority 2011, dated 2021)

Key:
[1] = system: patients with epilepsy, behavioral and nutritional abnormalities; test: Clinical observations under oral nicotinamide therapy; format: in vivo, human
[2] = system: subjects suspected to suffer from tryptophan malabsorption; details: 20 mg/kg/day in six doses, three subjects; cited from earlier work

## NC(=O)c1cccnc1 [nicotinamide, pyridine-3-carboxamide]
[1]; nicotinamide therapy
  indican in plasma and urine: normalization
[1]; oral nicotinamide
  behavioral, neurological and psychiatric abnormalities: Remarkable improvement up to normalization
  intestinal tryptophan absorption: stimulates intestinal tryptophan absorption
[1]; patients with epilepsy, behavioral and nutritional abnormalities hardly improved by antiepileptic, antidepressant and other drugs
  clinical picture under nicotinamide therapy: normalized in one or two months
[2]
  effect on behavioral and psychiatric illnesses: beneficial effect
